Laboratory results reported in patent US20230157996A1, “SMALL-MOLECULE INHIBITOR TARGETING EB VIRUS NUCLEAR ANTIGEN PROTEIN, PREPARATION METHOD AND USE THEREOF” (priority 2020, published 2023).

test system: C666-1 cells; assay: C666-1 cell viability single concentration (50 μM) inhibition rate (Resazurin); assay type: cell-based; conditions: Homo sapiens, C6661, 72 h, 50 μM compound, 72 hours, C666-1 cells; read-out: C666-1 cell viability single concentration (50 μM) inhibition rate, Ratio* (Inh %)
Experimental: In order to assess the effect of the EBNA1 inhibitor at the cellular level, the cell proliferation inhibition rate was tested, and the inhibition rate of inhibitor at a specific concentration on the proliferation of Epstein-Barr virus positive cell line C666-1 was detected.
In the test, 100 μL C666-1 cells were inoculated in a transparent 96-well plate, and each well contained 5×10^3 cells. After the cells were cultured in an incubator with 5% carbon dioxide at 37° C. for 24 hours, 10 μL compound at a concentration of 500 μmol/L was added into the cells, so that the final concentration of the compound was 50 μmol/L. Two replicate wells were set for each compound, the wells treated with DMSO were set as control wells (Ctrl), and the wells with cell culture medium only were set as blank wells (blank), and they were treated in the incubator with carbon dioxide at 37° C. for 72 hours. The cell viability was assessed using a redox indicator Resazurin. Specifically, 10 μL Resazurin at a concentration of 600 umol/L was added into each well, and incubated at 37° C. for 3 hours, and a Tecan microplate reader was used to detect the fluorescence signal at an excitation wavelength of 560 nm and an emission wavelength of 590 nm. The formula inh %=1−(F−Fblank)/(FCtrl−Fblank)×100% (where, F is the fluorescence intensity of the compound-added wells, FCtrl and Fblank are the readings of the control wells and blank wells, respectively) was used to calculate the inhibition rate of the compound on the proliferation of C666-1 cells, so as to assess the activity of the compound on Epstein-Barr virus positive cells.

Row | Compound | inhibition at 50 µM [%]
1 | O=C(O)c1cccc(N2CC(Oc3ccc(CO)cc3)C2)c1-c1cccc(C(F)(F)F)c1 [Compound 60, 3′-(trifluoromethyl)-6-(3-(4-(hydroxymethyl)phenoxy)azetidin-1-yl)-[1,1′-biphenyl]-2-formic acid] | < 10
2 | COC(=O)c1cccc(N2CC(Oc3ccc(CO)cc3)C2)c1-c1cc(F)cc(F)c1 [Compound 61, Methyl 3′,5′-difluoro-6-(3-(4-(hydroxymethyl)phenoxy)azetidin-1-yl)-[1,1′-biphenyl]-2-formate] | 10 to 30
3 | O=C(O)c1cccc(N2CC(Oc3ccc(CO)cc3)C2)c1-c1cc(F)cc(F)c1 [Compound 62, 3′,5′-difluoro-6-(3-(4-(hydroxymethyl)phenoxy)azetidin-1-yl)-[1,1′-biphenyl]-2-formic acid] | < 10
4 | COC(=O)c1cccc(N2CC(Oc3ccc(CO)cc3)C2)c1-c1ccc(-c2ccccc2)cc1 [Compound 63, Methyl 6-(3-(4-(hydroxymethyl)phenoxy)azetidin-1-yl)-[1,1′:4′,1″-terphenyl]-2-formate] | 10 to 30
5 | O=C(O)c1cccc(N2CC(Oc3ccc(CO)cc3)C2)c1-c1ccc(-c2ccccc2)cc1 [Compound 64, 6-(3-(4-(hydroxymethyl)phenoxy)azetidin-1-yl)-[1,1′:4′,1″-terphenyl]-2-formic acid] | > 50
6 | COC(=O)c1cccc(N2CC(Oc3ccc(CO)cc3)C2)c1-c1cccc(NS(C)(=O)=O)c1 [Compound 65, Methyl 3′-(methylsulfonamido)-6-(3-(4-(hydroxymethyl)phenoxy)azetidin-1-yl)-[1,1′-biphenyl]-2-formate] | 30 to 50
7 | COC(=O)c1cccc(N2CC(Oc3ccc(CO)cc3)C2)c1-c1cccc(OC)c1 [Compound 66, Methyl 3′-methoxy-6-(3-(4-(hydroxymethyl)phenoxy)azetidin-1-yl)-[1,1′-biphenyl]-2-formate] | 30 to 50
8 | COc1cccc(-c2c(C(=O)O)cccc2N2CC(Oc3ccc(CO)cc3)C2)c1 [Compound 67, 3′-methoxy-6-(3-(4-(hydroxymethyl)phenoxy)azetidin-1-yl)-[1,1′-biphenyl]-2-formic acid] | < 10
9 | COC(=O)c1cccc(N2CC(Oc3ccc(CO)cc3)C2)c1-c1ccc(F)c(C#N)c1 [Compound 68, Methyl 3′-cyano-4′-fluoro-6-(3-(4-(hydroxymethyl)phenoxy)azetidin-1-yl)-[1,1′-biphenyl]-2-formate] | 10 to 30
10 | COC(=O)c1cccc(N2CC(Oc3ccc(CO)cc3)C2)c1-n1cccn1 [Compound 69, Methyl 3-(3-(4-(hydroxymethyl)phenoxy)azetidin-1-yl)-2-(1H-pyrazol-1-yl)benzoate] | 10 to 30
11 | O=C(O)c1cccc(N2CC(Oc3ccc(CO)cc3)C2)c1-n1cccn1 [Compound 70, 3-(3-(4-(hydroxymethyl)phenoxy)azetidin-1-yl)-2-(1H-pyrazol-1-yl)benzoic acid] | < 10
12 | O=C(O)c1cccc(OC2CN(c3cccc(C(=O)NCc4ccccc4)c3)C2)c1 [Compound 71, 3-((1-(3-(benzylcarbamoyl)phenyl)azetidin-3-yl)oxy)benzoic acid] | < 10
13 | Nc1c(C(=O)O)cccc1N1CC(Oc2cccc(C(=O)O)c2)C1 [Compound 72, 3-(3-(3-carboxylphenoxy)azetidin-1-yl)-2-aminobenzoic acid] | < 10
14 | O=C(O)c1cccc(OC2CN(c3cccc(C(=O)O)c3-n3cccc3)C2)c1 [Compound 73, 3-(3-(3-carboxylphenoxy)azetidin-1-yl)-2-(1H-pyrrol-1-yl)benzoic acid] | < 10
15 | COC(=O)c1cccc(N2CC(Oc3ccc(COC(C)=O)cc3)C2)c1-n1cccc1 [Compound 74, Methyl 3-(3-(4-(acetoxylmethyl)phenoxy)azetidin-1-yl)-2-(1H-pyrrol-1-yl)benzoate] | < 10
